Results: patent publication US20030187037A1, “Acetamide derivatives and the use thereof as inhibitors of coagulation factors xa and viia” (priority 2000, published 2003)

Experiments:
factor Xa, human = factor Xa, human (Homo sapiens, UniProt P00742); assay: Inhibition of factor Xa (IC50, headed 'Affinity to Receptors'); type: biochemical
Description: The inhibition of factor Xa by the compounds according to the invention and the measurement of the anticoagulant and antithrombotic activity can be determined by conventional in-vitro or in-vivo methods. A suitable method is described, for example, by J. Hauptmann et al. in Thrombosis and Haemostasis 1990, 63, 220-223.
The inhibition of factor Xa can be measured, for example, by the method of T. Hara et al. in Thromb. Haemostas. 1994, 71, 314-319.

TF/VIIa = TF/VIIa (Homo sapiens, UniProt P08709); assay: Inhibition of TF/VIIa (IC50, headed 'Affinity to Receptors'); type: biochemical
Sequence of TF/VIIa (P08709 213-466 limits assumed): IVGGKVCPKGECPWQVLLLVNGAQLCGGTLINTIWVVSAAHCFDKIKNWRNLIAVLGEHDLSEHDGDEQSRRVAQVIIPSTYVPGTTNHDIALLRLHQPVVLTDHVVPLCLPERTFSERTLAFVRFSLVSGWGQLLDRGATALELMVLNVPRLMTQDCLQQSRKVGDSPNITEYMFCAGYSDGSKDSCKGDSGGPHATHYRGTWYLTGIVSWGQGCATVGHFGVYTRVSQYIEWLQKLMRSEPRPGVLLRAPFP
Sequence of TF/VIIa (P08709 61-212 partner limits assumed): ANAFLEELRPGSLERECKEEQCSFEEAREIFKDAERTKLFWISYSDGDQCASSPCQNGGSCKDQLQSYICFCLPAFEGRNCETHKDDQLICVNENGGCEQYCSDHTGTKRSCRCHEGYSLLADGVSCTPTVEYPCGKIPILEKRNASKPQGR
Sequence of TF/VIIa (P13726 33-295 partner): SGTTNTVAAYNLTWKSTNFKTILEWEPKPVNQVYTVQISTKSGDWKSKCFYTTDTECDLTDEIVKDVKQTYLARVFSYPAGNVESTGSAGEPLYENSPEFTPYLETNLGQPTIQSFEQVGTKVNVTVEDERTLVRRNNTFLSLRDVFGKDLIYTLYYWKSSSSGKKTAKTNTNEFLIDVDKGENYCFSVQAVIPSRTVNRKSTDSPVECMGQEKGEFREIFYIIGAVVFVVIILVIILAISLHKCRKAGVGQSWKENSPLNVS
Description: The inhibition of factor VIIa by the compounds according to the invention and the measurement of the anticoagulant and antithrombotic activity can be determined by conventional in-vitro or in-vivo methods. A conventional method for the measurement of the inhibition of factor VIIa is described, for example, by H. F. Ronning et al. in Thrombosis Research 1996, 84, 73-81.

Sequence of factor Xa, human (P00742 235-488 limits assumed): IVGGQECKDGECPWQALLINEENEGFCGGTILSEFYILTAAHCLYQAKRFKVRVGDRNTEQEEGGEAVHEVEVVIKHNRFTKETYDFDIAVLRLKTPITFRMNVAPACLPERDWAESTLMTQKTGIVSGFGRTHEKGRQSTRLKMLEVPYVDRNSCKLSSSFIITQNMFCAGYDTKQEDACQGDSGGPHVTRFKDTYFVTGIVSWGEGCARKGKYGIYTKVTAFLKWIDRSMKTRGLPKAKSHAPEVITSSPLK
Sequence of factor Xa, human (P00742 41-179 partner limits assumed): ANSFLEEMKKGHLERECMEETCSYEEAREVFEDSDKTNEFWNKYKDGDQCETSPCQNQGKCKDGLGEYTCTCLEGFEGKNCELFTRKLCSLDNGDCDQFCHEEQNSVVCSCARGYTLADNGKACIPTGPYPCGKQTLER

Row | Compound | IC50 (factor Xa, human) | IC50 (TF/VIIa)
1 | CCCN(Cc1cccc(C(=N)N)c1)C(=O)Cc1ccc(-c2ccccc2S(N)(=O)=O)cc1 [Example 3.3, N-3-amidinobenzyl-N-propyl-2-(2′-sulfamoylbiphenyl-4-yl)acetamide] | 2 µM | 0.9 µM
2 | CCCN(Cc1cccc(C(=N)N)c1)C(=O)Cc1ccc(-c2ccccc2S(C)(=O)=O)cc1 [Example 4.3, N-(3-amidinobenzyl)-N-propyl-2-(2′-methylsulfonylbiphenyl-4-yl)acetamide] | 1 µM | 0.7 µM
3 | CS(=O)(=O)c1ccccc1-c1ccc(CC(=O)N(Cc2cccc(C(=N)N)c2)c2ccccc2)cc1 [N-(3-amidinobenzyl)-N-phenyl-2-(2′-methylsulfonylbiphenyl-4-yl)acetamide] | 0.55 µM | 0.65 µM
4 | N=C(N)c1cccc(CN(C(=O)Cc2ccc(-c3ccccc3S(N)(=O)=O)cc2)c2ccccc2)c1 [N-(3-amidinobenzyl)-N-phenyl-2-(2′-sulfamoylbiphenyl-4-yl)acetamide] | 2 µM | 1.5 µM
